Source: ChEMBL document CHEMBL3407329, “Looking for new antileishmanial derivatives in 8-nitroquinolin-2(1H)-one series” (Eur J Med Chem, 2015)

Experiments:
[1] = tested on: Leishmania donovani; assay: Antileishmanial activity against Leishmania donovani MHOM/IN/00/DEVI promastigotes assessed as reduction in parasite growth incubated for 72 hrs by MTT assay; assay type: functional, organism-based
[2] = Selectivity index, ratio of CC50 for human HepG2 cells to IC50 for Leishmania donovani MHOM/IN/00/DEVI promastigotes; assay type: functional
[3] = Cytotoxicity against human HepG2 cells assessed as reduction in cell viability incubated for 72 hrs by MTT assay; assay type: cell-based
[4] = Cytotoxicity against human THP1 cells assessed as reduction in cell viability incubated for 72 hrs by MTT assay; assay type: cell-based; settings: THP-1 cells
[5] = tested on: Leishmania donovani; assay: Antileishmanial activity against Leishmania donovani MHOM/IN/00/DEVI intracellular amastigotes infected in human THP1 cells assessed as reduction in parasite-infected macrophages incubated for 120 hrs by Giemsa staining based microscopy; assay type: functional, organism-based; settings: THP-1, 120 h

IC50 [5] | Compound | IC50 [1] | Ratio CC50/IC50 [2] | CC50 at 72 h [3] | CC50 at 72 h [4]
 | O=c1cc(Sc2ccc(Cl)cc2)c2cccc([N+](=O)[O-])c2[nH]1 | > 10 µM |  |  | 
 | O=c1cc(Sc2ccccc2C(F)(F)F)c2cccc([N+](=O)[O-])c2[nH]1 | 3.5 µM | >2.22 | > 7.8 µM | 
 | Cc1cc(Oc2cc(=O)[nH]c3c([N+](=O)[O-])cccc23)ccc1Cl | 6 µM | >2.6 | > 15.6 µM | 
 | O=c1cc(Sc2ccc(Cl)cc2Cl)c2cccc([N+](=O)[O-])c2[nH]1 | 3.8 µM | >2.1 | > 7.8 µM | 
> 12.5 µM | Cc1ccc(Oc2cc(=O)[nH]c3c([N+](=O)[O-])cccc23)cc1 | 6 µM | >4.2 | > 25 µM | > 12.5 µM
 | O=c1cc(Sc2cccc(F)c2)c2cccc([N+](=O)[O-])c2[nH]1 | > 10 µM |  |  | 
 | COc1ccc(Oc2cc(=O)[nH]c3c([N+](=O)[O-])cccc23)cc1 | > 10 µM |  |  | 
 | O=c1cc(N2CCNCC2)c2cccc([N+](=O)[O-])c2[nH]1 | > 50 µM |  | 2.4 µM | 
 | O=c1cc(Oc2cccc(Br)c2)c2cccc([N+](=O)[O-])c2[nH]1 | > 10 µM |  |  | 
 | COc1cccc(Oc2cc(=O)[nH]c3c([N+](=O)[O-])cccc23)c1 | > 10 µM |  |  | 
 | O=c1cc(Oc2ccc(C(F)(F)F)cc2)c2cccc([N+](=O)[O-])c2[nH]1 | 8.4 µM | >0.9 | > 7.8 µM | 
 | CCCCNc1cc(=O)[nH]c2c([N+](=O)[O-])cccc12 | 21.4 µM |  | 12.2 µM | 
 | O=c1cc(Sc2ccccc2)c2cccc([N+](=O)[O-])c2[nH]1 | 9.3 µM | >1.3 | > 12.5 µM | 
 | COc1cccc2c1C(=O)c1c(O)c3c(c(O)c1C2=O)C[C@@](O)(C(=O)CO)C[C@@H]3O[C@H]1C[C@H](N)[C@H](O)[C@H](C)O1 [DOXORUBICIN] |  |  |  | 0.008 µM
 | O=c1cc(Sc2cccc(C(F)(F)F)c2)c2cccc([N+](=O)[O-])c2[nH]1 | > 10 µM |  |  | 
> 12.5 µM | O=c1cc(Sc2ccc(C(F)(F)F)cc2)c2cccc([N+](=O)[O-])c2[nH]1 | 3.8 µM | >3.3 | > 12.5 µM | > 12.5 µM
 | O=c1cc(Nc2ccccc2)c2cccc([N+](=O)[O-])c2[nH]1 | > 50 µM |  | 1.8 µM | 
 | O=c1cc(Oc2ccccc2Cl)c2cccc([N+](=O)[O-])c2[nH]1 | > 10 µM |  |  | 
 | O=c1cc(Oc2cccc(F)c2)c2cccc([N+](=O)[O-])c2[nH]1 | > 10 µM |  |  | 
 | O=c1cc(N2CCOCC2)c2cccc([N+](=O)[O-])c2[nH]1 | 42.1 µM |  | 86.2 µM | 
 | CC(C)(C)OC(=O)NCCOCCOCCNc1cc(=O)[nH]c2c([N+](=O)[O-])cccc12 | > 50 µM |  | 34.8 µM | 
 | COc1ccccc1Sc1cc(=O)[nH]c2c([N+](=O)[O-])cccc12 | > 10 µM |  |  | 
 | O=c1cc(Sc2ccccc2F)c2cccc([N+](=O)[O-])c2[nH]1 | > 10 µM |  |  | 

IC50 [5] | Compound | IC50 [1] | Ratio CC50/IC50 [2] | CC50 at 72 h [3] | CC50 at 72 h [4]
 | O=c1cc(Oc2ccccc2)c2cccc([N+](=O)[O-])c2[nH]1 | 14 µM | >0.9 | > 12.5 µM | 
 | Cc1ccc(Sc2cc(=O)[nH]c3c([N+](=O)[O-])cccc23)cc1 | > 10 µM |  |  | 
 | Cc1ccccc1Oc1cc(=O)[nH]c2c([N+](=O)[O-])cccc12 | > 10 µM |  |  | 
 | O=c1cc(Sc2ccccc2Cl)c2cccc([N+](=O)[O-])c2[nH]1 | 3.5 µM | >0.4 | > 1.25 µM | 
 | COc1ccccc1Oc1cc(=O)[nH]c2c([N+](=O)[O-])cccc12 | > 10 µM |  |  | 
 | O=c1cc(Oc2ccc(Br)cc2)c2cccc([N+](=O)[O-])c2[nH]1 | > 5 µM |  |  | 
> 20 µM | N=C(N)c1ccc(OCCCCCOc2ccc(C(=N)N)cc2)cc1 [PENTAMIDINE] |  | 0.4 |  | 31.2 µM
 | Cc1cccc(Oc2cc(=O)[nH]c3c([N+](=O)[O-])cccc23)c1 | > 10 µM |  |  | 
 | O=c1cc(Oc2cccc(Cl)c2)c2cccc([N+](=O)[O-])c2[nH]1 | > 10 µM |  |  | 
 | COc1ccc(Sc2cc(=O)[nH]c3c([N+](=O)[O-])cccc23)cc1 | > 10 µM |  |  | 
 | O=c1cc(Oc2ccc(Cl)cc2)c2cccc([N+](=O)[O-])c2[nH]1 | 3.7 µM | >1.1 | > 3.9 µM | 
 | O=c1cc(Sc2ccc(Br)cc2)c2cccc([N+](=O)[O-])c2[nH]1 | 4.2 µM | >0.9 | > 3.9 µM | 
 | O=c1cc(Sc2ccc(F)cc2)c2cccc([N+](=O)[O-])c2[nH]1 | > 10 µM |  |  | 
 | O=c1cc(Sc2cccc(Cl)c2)c2cccc([N+](=O)[O-])c2[nH]1 | > 10 µM |  |  | 
 | NCCOCCOCCNc1cc(=O)[nH]c2c([N+](=O)[O-])cccc12 | > 50 µM |  | 123 µM | 
 | Nc1cc(=O)[nH]c2c([N+](=O)[O-])cccc12 | > 50 µM |  | > 125 µM | 
 | O=c1cc(Oc2ccccc2F)c2cccc([N+](=O)[O-])c2[nH]1 | > 10 µM |  |  | 
 | O=c1cc(Oc2ccccc2Br)c2cccc([N+](=O)[O-])c2[nH]1 | 8.1 µM | >0.96 | > 7.8 µM | 
 | Cc1ccccc1Sc1cc(=O)[nH]c2c([N+](=O)[O-])cccc12 | > 10 µM |  |  | 
 | O=c1cc(Oc2cccc(C(F)(F)F)c2)c2cccc([N+](=O)[O-])c2[nH]1 | > 10 µM | >0.7 | > 7.8 µM | 
 | COc1cccc(Sc2cc(=O)[nH]c3c([N+](=O)[O-])cccc23)c1 | > 10 µM |  |  | 
 | Nc1ccccc1Sc1cc(=O)[nH]c2c([N+](=O)[O-])cccc12 | > 10 µM |  |  | 
 | O=c1cc(Oc2ccccc2C(F)(F)F)c2cccc([N+](=O)[O-])c2[nH]1 | 10 µM | >1.6 | > 15.6 µM | 
